Laboratory results as given in patent US20220290111A1, “NUCLEIC ACIDS, PROTEINS AND PROCESSES FOR PRODUCING AMIDES” (Leibniz-Institut für Pflanzenbiochemie, priority 2019, published 2022).

How the values were obtained:
Assay type in all cases: biochemical, Piper nigrum
PipSyn1 [1] = assay: in vitro enzyme assay of amide formation from CoA-ester and amine, PipSyn1; settings: 100% = 2 nkat/mg PipSyn2 with piperoyl-CoA and piperidine, UV quantification; for relative activity, 3,4-methylenedioxycinnamoyl-CoA: CoA-ester 3,4-methylenedioxycinnamoyl-CoA; for relative activity, benzoyl-CoA: CoA-ester benzoyl-CoA; for relative activity, piperoyl-CoA: CoA-ester piperoyl-CoA
Protocol: Standard assays are routine for a person of average skill in the art.
(§1) A standard enzyme assay contains:
(§2) 10 μl enzyme solution in 30 mM Tris/HCl buffer pH 8.0 (10% glycerol, 1 mM DTT)
(§3) 1 μg-5 μg protein, amount determined according to Bradford
(§4) 10 μl piperidine, 100 mM (in water) 10 μl 5 mM DTT in water 10 μl piperoyl-CoA (PipCoA) 2.5 mM in 25% DMSO/75% water • All reagents (except PipCoA) were mixed in Eppendorf tubes and incubated in a standard (Eppendorf) incubator set at 30° C. Reagents were pre-equilibrated for 1 min to this temperature. • Assay start: addition of 10 μl PipCoA 2.5 mM in 25% DMSO/75% water to a final concentration of 500 μM PipCoA. • Assay stop after 5 min addition of 10 μl stop solution such as 1% formic acid/50% acetonitrile
(§5) Mix by vortex, incubate on ice for 5 minutes and centrifugation for 1 min at 20,000 g to precipitate any debris or insoluble material e.g. residual protein.
(§6) Remove 50 μl of supernatant for analysis of products (amides) by LC-MS. Injected to an RP-HPLC column are 10 μl (out of 50 μl). • Product formation is recorded via UV/PDA (photodiode array) detector and LC-MS and simultaneously. • Identification of piperine was achieved by use of a commercial standard and by LC-MS detection of calculated product masses at m/z 286 and UV-detection at 340 nm. • Quantification of product formation was achieved by a standard graph of piperine from 0.1-100 μM (commercial standard, Sigma) and recorded and calculated intensities of mass (peak area) and/or UV-peak area. • Identification and separation of piperine was according to a corresponding standard and a mass signal of m/z 286.1 in pos. mode and its corresponding absorbance at λmax-340 nm.
(§7) Quantification was performed based on a commercially available piperine standard. The peak area of the peak due to piperine in the LC trace was determined. Peaks due to possible isomerization products of piperine were neglected for the determination of enzyme activity of piperine formation. […] Before calculating enzyme activity in terms of nkat (nmole of piperine formed per second), the amount of non-enzymatically formed piperine is subtracted from the amount determined in the presence of protein.
(§8) Protein amounts were determined photometrically by the Bradford assay of combining a defined volume, preferentially 10 μl of the (partly) purified PipSyn1 and PipSyn2 enzyme and 990 μl of Bradford reagent, and calculating the resulting absorbance at λ=595 nm based on a standard curve made with a serial dilution of commercially available Bovine Serum Albumin fraction V in water.
(§9) This Example provides in Table 1 substrates which were tested for enzyme activity with both enzymes. Activity data were calculated from the UV-(PDA) area in the range of 320-370 nm. The data are supported by LC-MS measurements of corresponding m/z values recorded in positive ionization mode and based on calculated expected masses. Mass accuracy of Waters QDA-detector is +/−0.2 Dalton. Contrary to the procedure of Example 3, for the determination of the activity of the reaction of piperoyl-CoA and piperidine as substrates, the sum of all peaks in the LC trace due to species having calculated m/z values of the expected products was used for quantification of product, assuming the same ionization efficiency in positive ionization mode as in case of piperine for all molecule species.

recombinant PipSyn2 = assay: in vitro enzyme assay of amide formation from CoA-ester and amine, PipSyn2; settings: for relative activity, piperoyl-CoA / relative activity, 3,4-methylenedioxycinnamoyl-CoA / relative activity, myristoyl-CoA / relative activity, hexanoyl-CoA: PipSyn2; for relative activity, piperoyl-CoA: CoA-ester piperoyl-CoA, 100% = 2 nkat/mg PipSyn2 with piperidine, assay as Example 3; for relative activity, piperoyl-CoA / relative activity, 3,4-methylenedioxycinnamoyl-CoA: UV quantification; for relative activity, 3,4-methylenedioxycinnamoyl-CoA: CoA-ester 3,4-methylenedioxycinnamoyl-CoA; for relative activity, 3,4-methylenedioxycinnamoyl-CoA / relative activity, myristoyl-CoA / relative activity, hexanoyl-CoA: 100% = 2 nkat/mg PipSyn2 with piperoyl-CoA and piperidine; for relative activity, myristoyl-CoA: CoA-ester myristoyl-CoA; for relative activity, myristoyl-CoA / relative activity, hexanoyl-CoA: quantification by mass detection; for relative activity, hexanoyl-CoA: CoA-ester hexanoyl-CoA
Protocol: Enzyme activity test with regard to piperine formation in case of PipSynthase 2.
as §1, §2, §3, §4, §5, §6, §7, §8, §9

PipSyn1 [2] = assay: in vitro enzyme assay of amide formation from CoA-ester and amine, PipSyn1; settings: 100% = 2 nkat/mg PipSyn2 with piperoyl-CoA and piperidine, quantification by mass detection; for relative activity, myristoyl-CoA: CoA-ester myristoyl-CoA; for relative activity, hexanoyl-CoA: CoA-ester hexanoyl-CoA

Row | Molecule | relative activity, 3,4-methylenedioxycinnamoyl-CoA (PipSyn1 [1]) [%] | relative activity, benzoyl-CoA (PipSyn1 [1]) [%] | relative activity, piperoyl-CoA (PipSyn1 [1]) [%] | relative activity, piperoyl-CoA (recombinant PipSyn2) [%] | relative activity, 3,4-methylenedioxycinnamoyl-CoA (recombinant PipSyn2) [%] | relative activity, myristoyl-CoA (PipSyn1 [2]) [%] | relative activity, myristoyl-CoA (recombinant PipSyn2) [%] | relative activity, hexanoyl-CoA (PipSyn1 [2]) [%] | relative activity, hexanoyl-CoA (recombinant PipSyn2) [%] | catalytic activity taken as 100% (recombinant PipSyn2; recombinant PipSyn2 with piperoyl-CoA and piperidine as substrates) [nkat/mg]
1 | NCCCCCCCN [1,7-diaminoheptane] | 104 | 2 | 26 | 2 | – | – | – | – | – | –
2 | NCC1CCNCC1 [4-aminomethylpiperidine] | 6 | – | 17 | 36 | 7 | – | – | – | – | –
3 | NCCc1ccc(O)c(O)c1 [dopamine] | 7 | – | 2 | – | – | – | – | – | – | –
4 | CC(C)CN [isobutylamine] | 173 | 6 | 66 | 16 | 2 | 20 | 15 | – | – | –
5 | C1CCNCC1 [piperidine] | 184 | 7 | 117 | 100 | 38 | 10 | 10 | 23 | 12 | –
6 | C1CCNC1 [pyrrolidine] | 186 | 1 | 77 | 34 | 3 | 3 | <1 | 300 | 60 | –
7 | COc1cc(CN)ccc1O [vanillylamine] | 10 | – | 2 | – | – | – | – | 2 | <1 | –
8 | PipSyn2: recombinant His-tagged piperine synthase from Piper nigrum, amino acid sequence SEQ ID NO: 4, expressed in E. coli (protein, listed as Piper nigrum, His tag) MAPSSQLEFNVVRKQPELLPPAEPTPFEWKELSDIDDQDGLRLHISGFFIYPPSTMSNVGRDNVARDIRLGLSKAMVFYYPLAGRIREGPNRKLSVECTGEGIMYCEADADVRLEQFGDIGALSMPFPFMDKVMFETVDDGILGTPLMYFQSTRFICGGIVIAGCYNHAIADGLGFYMFMAAAAQLARGAASPTPLPVWQRERLLSRVPPRVTFIHHEYIHDTPKTETANPLDNEPWPLHSIFFTRVDVAALRAQLPGHLRKSATSFEIISACLWRCRTAALRFAPDELSRLIIAVNARTKFGPPLPQGYYGNSIMLPMVVSEAGKLVLSGLGYAVELVIEAKGKVTEEYVKSVADYLVLNGRPHYVVTNTYLVSDLRQLVEMSKFDWGWGKPAYVGPADVGENAISFLATLKNGEEEGVVVPIRLPESAVGRFKSEVSKMVSFGCLEDVKPNRDGYLSRM | – | – | – | – | – | – | – | – | – | 2
